Data: patent US20250093263A1, “FRET-BASED ASSAYS” (The General Hospital Corporation, priority 2021, published 2025)

How the values were obtained:
HDAC1 Recombinant [1] = target: T1, HDAC1 Recombinant (Homo sapiens, UniProt Q13547); assay: TR-FRET assay with recombinant HDAC1; format: binding; details: 5 nM HDAC1, 2.5 nM Tb-Anti-6xHis IgG, 20 nM SAHA-NCT, 3 h
T1 construct: purchased BPS Bioscience Inc 50051

HDAC1 Recombinant [2] = target: T1, HDAC1 Recombinant; assay: HDAC1 enzymatic activity assay with recombinant protein; format: biochemical; details: 5 nM HDAC1, 18 μM MAZ1600 substrate (3 × KM), 3 h incubation
Procedure: 7-Amino-4-methyl coumarin fluorescence was measured on a Tecan SPARK plate reader: 350/20 nm excitation, 460/10 nm emission.

HDAC1-HaloTag = HDAC1-HaloTag (Homo sapiens, UniProt Q13547)
HDAC1-HaloTag, sequence (Q13547 whole entry): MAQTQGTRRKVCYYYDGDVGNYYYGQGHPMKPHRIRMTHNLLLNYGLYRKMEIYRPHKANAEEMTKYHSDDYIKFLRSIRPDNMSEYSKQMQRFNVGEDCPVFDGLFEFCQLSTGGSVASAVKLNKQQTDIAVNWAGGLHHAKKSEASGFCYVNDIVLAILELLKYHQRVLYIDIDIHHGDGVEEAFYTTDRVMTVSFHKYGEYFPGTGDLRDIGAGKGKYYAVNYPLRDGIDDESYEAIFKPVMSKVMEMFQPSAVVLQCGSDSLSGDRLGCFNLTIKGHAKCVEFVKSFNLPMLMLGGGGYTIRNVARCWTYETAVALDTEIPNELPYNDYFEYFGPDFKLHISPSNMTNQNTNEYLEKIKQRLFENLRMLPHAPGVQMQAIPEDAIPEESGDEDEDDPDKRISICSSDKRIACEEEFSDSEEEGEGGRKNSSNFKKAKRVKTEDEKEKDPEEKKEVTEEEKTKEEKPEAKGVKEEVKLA

BRD4(BD1) = target: T2, BRD4(BD1) (Homo sapiens, UniProt O60885); assay: TR-FRET saturation binding of JQ1-FITC, BRD4(BD1); details: 0.5 nM GST-BRD4(BD1), 2 nM CoraFluor-1-labeled anti-GST VHH; read-out: KD,app BRD4(BD1)
T2 construct: validated for its applicability with individual recombinant bromodomains BRD4(BD1) and BRD4(BD2); purchased BPS Biosciences, Inc 31040
Procedure: (§1) TR-FRET measurements: unless otherwise noted, experiments were performed in white, 384-well microtiter plates (Corning 3572) in 30 μL assay volume. […] The 490/10 and 520/10 emission channels were acquired with a 50% mirror and a dichroic 510 mirror, respectively, using independently optimized detector gain settings unless specified otherwise. The TR-FRET ratio was taken as the 520/490 nm intensity ratio on a per-well basis.
(§2) Determination of apparent equilibrium dissociation constant (KD,app) of JQ1-FITC toward individual recombinant bromodomains and endogenous BRD4 in MCF7 lysate: recombinant BRD4(BD1) and BRD4(BD2) were purchased from BPS Biosciences, Inc and Epicypher, Inc (GST-BRD4(BD1), 31040; GST-BRD4(BD2), 15-0013, respectively). Recombinant bromodomains were diluted to 0.5 nM in assay buffer (25 mM HEPES, 150 mM NaCl, 0.5 mg/mL BSA, 0.005% TWEEN-20, pH 7.5) with 2 nM CoraFluor-1-labeled anti-GST VHH, then JQ1-FITC was added in serial dilution (1:1.6 titration, 15-point, cmax=100 nM) using a D300 digital dispenser (Hewlett-Packard) and allowed to equilibrate for 2 h at room temperature before TR-FRET measurements were taken. Nonspecific signal was determined with 50 μM JQ1-Acid, and data were fitted to a One Site—Specific Binding model in Prism 9.

BRD4(BD2) = target: T3, BRD4(BD2) (Homo sapiens, UniProt O60885); assay: TR-FRET saturation binding of JQ1-FITC, BRD4(BD2); details: 0.5 nM GST-BRD4(BD2), 2 nM CoraFluor-1-labeled anti-GST VHH; read-out: KD,app BRD4(BD2)
T3 construct: validated for its applicability with individual recombinant bromodomains BRD4(BD1) and BRD4(BD2); purchased Epicypher, Inc 15-0013
Procedure: as §1, §2

[3] = test system: HsmPheRS (human mitochondrial PheRS); assay: TR-FRET titration of tracer MAT588, HsmPheRS; format: binding
[4] = target: T4, HsmPheRS (human mitochondrial PheRS) (Homo sapiens, UniProt O95363); assay: TR-FRET titration of tracer MAT588, HsmPheRS; format: binding; details: absence of substrates, titrating
T4 construct: rows headed: HsmPheRS KD; other: absence of substrates, titrating; human mitochondrial PheRS (HisHalo-HsmPheRS); fused on or other part: C-terminal HaloTag, HRV-3C site and His9 tag; the CoraFluor-1 terbium donor is attached through the HaloTag or by direct Pfp labelling
T4 sequence (O95363 42-357 limits assumed): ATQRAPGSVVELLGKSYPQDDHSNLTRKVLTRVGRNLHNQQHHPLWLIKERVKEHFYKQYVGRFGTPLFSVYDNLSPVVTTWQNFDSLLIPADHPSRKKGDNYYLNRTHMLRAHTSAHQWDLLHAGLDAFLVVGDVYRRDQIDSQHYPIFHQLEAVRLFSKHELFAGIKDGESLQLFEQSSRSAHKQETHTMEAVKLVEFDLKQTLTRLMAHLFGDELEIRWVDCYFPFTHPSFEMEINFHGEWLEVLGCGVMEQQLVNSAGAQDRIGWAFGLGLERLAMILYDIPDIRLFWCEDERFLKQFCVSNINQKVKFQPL

[5] = target: T5, HscPheRS (human cytoplasmic PheRS) (Homo sapiens, UniProt Q9Y285); assay: TR-FRET titration of tracer MAT588, HscPheRS; format: binding; details: absence of substrates
T5 construct: HisHalo-HscPheRS; alpha subunit residues 1-508; beta subunit residues 1-589; made in house; host or cells: E. coli
T5 sequence (Q9Y285 1-508): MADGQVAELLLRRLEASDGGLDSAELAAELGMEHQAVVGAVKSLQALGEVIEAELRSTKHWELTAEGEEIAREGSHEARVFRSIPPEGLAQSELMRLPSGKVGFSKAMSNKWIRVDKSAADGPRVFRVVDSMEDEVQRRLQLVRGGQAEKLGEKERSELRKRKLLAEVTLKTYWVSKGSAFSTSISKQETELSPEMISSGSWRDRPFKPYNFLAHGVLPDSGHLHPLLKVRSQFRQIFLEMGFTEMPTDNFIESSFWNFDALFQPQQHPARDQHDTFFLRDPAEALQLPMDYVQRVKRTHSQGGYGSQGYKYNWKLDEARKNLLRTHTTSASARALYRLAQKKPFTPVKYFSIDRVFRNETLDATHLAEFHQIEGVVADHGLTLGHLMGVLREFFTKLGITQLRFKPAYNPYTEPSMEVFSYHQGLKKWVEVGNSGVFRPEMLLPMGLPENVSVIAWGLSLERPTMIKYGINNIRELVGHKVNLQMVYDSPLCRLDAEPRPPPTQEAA
T5 sequence (Q9NSD9 1-589 partner): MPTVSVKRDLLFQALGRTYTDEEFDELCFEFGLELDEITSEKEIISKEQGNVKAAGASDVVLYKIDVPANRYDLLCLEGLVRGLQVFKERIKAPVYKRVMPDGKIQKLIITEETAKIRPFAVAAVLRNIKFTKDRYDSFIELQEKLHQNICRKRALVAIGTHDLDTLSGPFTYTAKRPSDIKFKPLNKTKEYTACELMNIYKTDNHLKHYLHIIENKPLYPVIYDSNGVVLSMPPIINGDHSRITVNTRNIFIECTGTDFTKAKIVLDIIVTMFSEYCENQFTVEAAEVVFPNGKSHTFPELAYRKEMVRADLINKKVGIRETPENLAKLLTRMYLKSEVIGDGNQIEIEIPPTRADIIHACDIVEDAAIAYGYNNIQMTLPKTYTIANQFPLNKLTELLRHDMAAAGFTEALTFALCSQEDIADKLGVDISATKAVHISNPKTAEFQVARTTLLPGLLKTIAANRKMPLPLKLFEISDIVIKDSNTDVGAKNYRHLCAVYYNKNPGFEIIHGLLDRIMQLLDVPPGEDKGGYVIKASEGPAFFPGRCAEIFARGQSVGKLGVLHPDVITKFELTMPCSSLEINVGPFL

[6] = target: HDAC1-HaloTag in HEK293T cells (Homo sapiens, UniProt Q13547); assay: Cellular TR-FRET target engagement assay, HDAC1-HaloTag in HEK293T cells; format: cell-based; details: HEK-293T, read-out: Cellular TR-FRET assay SAHA-NCT 1 μM EC50 column: % @ 100
HDAC1-HaloTag in HEK293T cells, sequence (Q13547 whole entry): as the sequence (Q13547 whole entry) above
Procedure: Separately, stock solutions of plasmid DNA (pFC14A-HDAC1-HaloTag; 16 μg/mL) and PEI-MAX (48 μg/mL) were prepared in PBS such that the final volume of each stock solution was 1:20 of the volume of suspension cells in culture media (1:3 w/w DNA:PEI-MAX). The solutions were thoroughly mixed, then the DNA solution was added slowly to the PEI solution and the resulting transfection cocktail (1:10 volume of suspension) was incubated for 20 min at room temperature. The transfection cocktail was added to the cell suspension (final concentrations: 0.8 μg/mL DNA, 2.4 μg/mL PEI-MAX, 350,000 cells/mL) and the 12 mL suspension was added to a 10 cm dish. Cells were grown for 24 h at 37° C. and 5% CO2.
After, media was aspirated and cells were quickly washed with 12 mL phenol red-free DMEM+10% FBS, followed by one 30 min wash at 37° C. and 5% CO2. Cells were washed with PBS, trypsinized, counted, and pelleted.

T1 sequence (Q13547 whole entry): as the sequence (Q13547 whole entry) above

With `O=C(CCCCCCC(=O)Nc1ccc(CNC(=O)c2ccc(C(=O)O)c(C3=c4cc5c6c(c4Oc4c3cc3c7c4CCCN7CCCC3)CCC[N+]=6CCCC5)c2)cc1)NO` [SAHA-NCT] the Kd (HDAC1 Recombinant [1]) was 9 nM, the IC50 (HDAC1 Recombinant [2]) was 8 nM and the Kd (HDAC1 Recombinant [2]) was 2 nM. The Kd (HDAC1-HaloTag) was 9 nM.

In the case of `Cc1sc2c(c1C)C(c1ccc(Cl)cc1)=NC(CC(=O)NCCCOCCOCCOCCCNC(=S)Nc1ccc(-c3c4ccc(=O)cc-4oc4cc(O)ccc34)c(C(=O)O)c1)c1nnc(C)n1-2` (stereo not shown) [JQ1-FITC, 5-(3-(1-(4-(4-chlorophenyl)-2,3,9-trimethyl-6H-thieno[3,2-f][1,2,4]triazolo[4,3-a][1,4]diazepin-6-yl)-2-oxo-7,10,13-trioxa-3-azahexadecan-16-y)thioureido)-2-(6-hydroxy-3-oxo-3H-xanthen-9-yl)benzoic acid], the Kd (BRD4(BD1)) is reported as 6.5 ± 1.1 nM and the Kd (BRD4(BD2)) is reported as 5.8 ± 1.5 nM.

With `Nc1ncnc2c1ncn2[C@@H]1O[C@H](CN(CCCCCCOCCOCCNC(=O)c2ccc(C(=O)O)c(-c3c4ccc(=O)cc-4oc4cc(O)ccc34)c2)S(=O)(=O)NC(=O)[C@@H](N)Cc2ccccc2)[C@@H](O)[C@H]1O` [MAT588, 4-((2-(2-((6-((N-(L-phenylalanyl)sulfamoyl)(((2R,3S,4R,5R)-5-(6-amino-9H-purin-9-yl)-3,4-dihydroxytetrahydrofuran-2-yl)methyl)amino)hexyl)oxy)ethoxy)ethyl)carbamoyl)-2-(6-hydroxy-3-oxo-3H-xanthen-9-yl)benzoic acid] the “selectivity for HsmPheRS over HscPheRS” value [3] was > 1,000 fold, the Kd [4] was under 10 nM and the Kd [5] was over 10000 nM.

For `CC(=O)Nc1ccc(C(=O)Nc2ccccc2N)cc1` [CI-994], the inhibition at 100 µM [6] was under 5%.
